Data reported in ChEMBL document CHEMBL1154541, “Synthesis of H-bonding probes of alpha7 nAChR agonist selectivity” (Bioorg Med Chem Lett, 2009).
Activity calls are given as the source filed them. No cut-off for these calls is given here.

What was measured:
Assay type in all cases: functional, cell-based
Details in all cases: Oocyte
[1] = biological target: Neuronal acetylcholine receptor subunit alpha-7 (Homo sapiens) (UniProt P36544); experiment: Agonist activity to alpha7 nAChR expressed in Xenopus oocytes assessed as response current at 100 uM by two-electrode voltage clamp relative to acetylcholine
Neuronal acetylcholine receptor subunit alpha-7 (Homo sapiens), sequence (P36544 whole entry): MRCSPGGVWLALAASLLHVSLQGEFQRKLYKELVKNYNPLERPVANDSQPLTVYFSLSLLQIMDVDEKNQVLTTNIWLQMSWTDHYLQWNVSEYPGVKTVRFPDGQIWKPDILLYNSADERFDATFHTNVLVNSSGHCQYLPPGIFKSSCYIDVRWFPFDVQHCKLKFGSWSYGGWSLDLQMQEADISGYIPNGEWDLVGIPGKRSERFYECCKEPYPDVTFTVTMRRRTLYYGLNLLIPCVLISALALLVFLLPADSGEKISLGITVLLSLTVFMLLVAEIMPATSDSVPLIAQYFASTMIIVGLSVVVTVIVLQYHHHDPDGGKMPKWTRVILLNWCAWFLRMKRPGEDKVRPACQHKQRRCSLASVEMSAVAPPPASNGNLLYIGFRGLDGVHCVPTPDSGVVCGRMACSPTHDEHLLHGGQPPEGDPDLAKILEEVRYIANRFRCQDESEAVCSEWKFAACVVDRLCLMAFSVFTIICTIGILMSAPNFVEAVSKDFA

[2] = biological target: Neuronal acetylcholine receptor; alpha4/beta2 (Homo sapiens) (UniProt P17787+P43681); experiment: Agonist activity to alpha4beta2 nAChR expressed in Xenopus oocytes assessed as response current at 100 uM by two-electrode voltage clamp relative to acetylcholine
[3] = biological target: Acetylcholine receptor subunit alpha (Homo sapiens) (UniProt P02708); experiment: Agonist activity to alpha-1-beta-1-epsilon-delta nAChR expressed in Xenopus oocytes assessed as response current at 100 uM by two-electrode voltage clamp relative to acetylcholine
Acetylcholine receptor subunit alpha (Homo sapiens), sequence (P02708 whole entry): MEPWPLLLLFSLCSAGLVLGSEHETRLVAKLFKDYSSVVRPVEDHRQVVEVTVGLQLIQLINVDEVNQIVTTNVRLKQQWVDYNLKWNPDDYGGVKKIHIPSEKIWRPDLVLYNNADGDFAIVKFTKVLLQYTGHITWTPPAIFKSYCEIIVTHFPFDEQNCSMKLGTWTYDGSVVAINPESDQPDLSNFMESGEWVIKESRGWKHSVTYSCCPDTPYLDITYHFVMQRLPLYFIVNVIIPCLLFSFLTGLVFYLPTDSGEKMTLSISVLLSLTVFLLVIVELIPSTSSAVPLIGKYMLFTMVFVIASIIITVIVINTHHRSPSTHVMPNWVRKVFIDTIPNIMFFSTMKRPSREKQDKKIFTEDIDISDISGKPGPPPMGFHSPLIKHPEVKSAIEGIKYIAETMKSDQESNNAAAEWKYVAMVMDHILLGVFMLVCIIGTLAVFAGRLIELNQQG

[4] = biological target: Neuronal acetylcholine receptor subunit alpha-7 (Homo sapiens) (UniProt P36544); experiment: Agonist activity to alpha7 nAChR expressed in Xenopus oocytes assessed as response current by two-electrode voltage clamp relative to acetylcholine
[5] = biological target: Neuronal acetylcholine receptor subunit alpha-7 (Homo sapiens) (UniProt P36544); experiment: Agonist activity to alpha7 nAChR expressed in Xenopus oocytes assessed as response current at 1mM by two-electrode voltage clamp relative to acetylcholine
[6] = biological target: Neuronal acetylcholine receptor; alpha3/beta4 (Homo sapiens) (UniProt P30926+P32297); experiment: Agonist activity to alpha3beta4 nAChR expressed in Xenopus oocytes assessed as response current at 100 uM by two-electrode voltage clamp relative to acetylcholine

Row | SMILES | Activity [1] | Activity [2] | Activity [3] | ED50 [4] | Activity [5] | Activity [6]
1 | C(=C1/CCCN=C1c1cccnc1)/c1cccnc1 | 35% | inactive | inactive | 100 µM | – | –
2 | C(=C1/CCCN=C1c1cccnc1)/c1ccc[nH]1 | 40% | inactive | inactive | – | – | –
3 | C(=C1/CCCN=C1c1cccnc1)/c1ccncc1 | – | inactive | inactive | – | < 20% | –
4 | C(=C1/CCCN=C1c1cccnc1)/c1cc[nH]c1 | 40% | – | – | – | – | 5%
5 | C(=C1/CCCN=C1c1cccnc1)/c1ccccn1 | – | inactive | inactive | – | < 20% | –
